Patent US8779142B2, “Azabicyclo compound and salt thereof” (Taiho Pharmaceutical Co., Ltd., priority 2009, dated 2014)
Where two headings read alike, the source gives them in different places.

Legend:
SK-BR-3 cells = test: Measurement of cell growth inhibition (crystal violet staining method); type: cell-based
[1] = target: human HSP90 alpha protein (HSP90 N-terminal protein, amino acids 2-236) (Homo sapiens (Human), UniProt P07900); test: Measurement of HSP90-binding activity (AlphaScreen competitive assay, biotin-labeled geldanamycin); conditions: read-out: HSP-binding activity IC50
[2] = Homo sapiens, breast cancer SK-BR-3 cells, 72 hr culture with test substance
[3] = concentration inhibiting binding of biotin-labeled geldanamycin (40 nM) to purified HSP90 to 50% of control

| Compound | IC50 (SK-BR-3 cells; [2]) | IC50 [1, 3] | other results |
| --- | --- | --- | --- |
| CC(C)c1nn(-c2ccc(C(N)=O)cc2Cl)c2nccc(-n3cnc(-c4ccc(C(=O)N(C)C)cc4)c3)c12 [Example 151, 4-{1-(1-(4-Carbamoyl-2-chlorophenyl)-3-isopropyl-1H-pyrazolo[3,4-b]pyridin-4-yl)-1H-imidazol-4-yl}-N,N-dimethylbenzamide] | 1540 nM | 660 nM | – |
| 2-(4-Hydroxycyclohexylamino)-4-{3-methyl-4-(4-(pyridin-3-yl)-1H-imidazol-1-yl)-1H-pyrazolo[2,3-b]pyridin-1-yl}benzamide [Example 98] | – | – | IC50 (SK-BR-3 cells): 10 nM; IC50 [1]: 70 nM |
| CCCc1cc(C(N)=O)ccc1-n1nc(C(C)C)c2c(-n3cnc(-c4cnn(C)c4)c3)ccnc21 [Example 103, 4-{3-Isopropyl-4-(4-(1-methyl-1H-pyrazol-4-yl)-1H-imidazol-1-yl)-1H-pyrazolo[3,4-b]pyridin-1-yl}-3-propylbenzamide] | 170 nM | 120 nM | – |
| Cc1cn(-c2ccc(C(N)=O)c(NC3CCOCC3)c2)c2nccc(-c3cnc4ccccc4c3)c12 [Example 53, 2-(Tetrahydro-2H-pyran-4-ylamino)-4-{3-methyl-4-(quinolin-3-yl)-1H-pyrrolo[2,3-b]pyridin-1-yl}benzamide] | 200 nM | 350 nM | – |
| NC(=O)c1ccc(-n2ccc3ccccc32)c(Cl)c1 [Comparative Example 6, reference compound] | > 10000 nM | > 100000 nM | – |
| NC(=O)c1ccc(-n2nc(C(F)(F)F)c3c(-n4cnc(-c5cccnc5)c4)ccnc32)cc1N [Example 176, 2-Amino-4-{4-(4-(pyridin-3-yl)-1H-imidazol-1-yl)-3-(trifluoromethyl)-1H-pyrazolo[3,4-b]pyridin-1-yl}benzamide] | 410 nM | 420 nM | – |
| Cc1cn(-c2ccc(C(N)=O)c(NCCCNC(C)C)c2)c2nccc(-c3cnc4ccccc4c3)c12 [Example 60, 2-[3-(Isopropylamino)propylamino]-4-{3-methyl-4-(quinolin-3-yl)-1H-pyrrolo[2,3-b]pyridin-1-yl}benzamide] | 1530 nM | 1370 nM | – |
| CC(C)c1nn(-c2ccc(C(N)=O)c(NC3CCC(O)CC3)c2)c2nccc(-n3cnc(-c4cnn(CO)c4)c3)c12 (stereo not drawn) [Example 96, 2-(4-Hydroxycyclohexylamino)-4-{4-(4-(1-hydroxymethyl)-(1H-pyrazol-4-yl)-1H-imidazol-1-yl)-3-isopropyl-1H-pyrazolo[3,4-b]pyridin-1-yl}benzamide] | – | 60 nM | IC50 (SK-BR-3 cells; breast cancer SK-BR-3 cells, 72 hr culture with test substance): 60 nM |
| CCn1cc(-c2cn(-c3ccnc4c3c(C(C)C)nn4-c3ccc(C(N)=O)cc3Cl)cn2)cn1 [Example 145, 3-Chloro-4-{4-(4-(1-ethyl-1H-pyrazol-4-yl)-1H-imidazol-1-yl)-3-isopropyl-1H-pyrazolo[3,4-b]pyridin-1-yl}benzamide] | 1500 nM | 630 nM | – |
| CC(C)c1nn(-c2ccc(C(N)=O)c(NC(C)(C)C)c2)c2nccc(-n3cnc(-c4cccnc4)c3)c12 [Example 141, 2-(Tert-butylamino)-4-{3-isopropyl-4-(4-(pyridin-3-yl)-1H-imidazol-1-yl)-1H-pyrazolo[3,4-b]pyridin-1-yl}benzamide] | 140 nM | 410 nM | – |
| CC(C)c1nn(-c2ccc(C(N)=O)c(N)c2)c2nccc(-n3cnc(-c4cnn(C)c4)c3)c12 [Example 106, 2-Amino-4-{3-isopropyl-4-(4-(1-methyl-1H-pyrazol-4-yl)-1H-imidazol-1-yl)-1H-pyrazolo[3,4-b]pyridin-1-yl}benzamide] | 650 nM | 340 nM | – |
| CC(C)NC(=O)c1ccc(-c2cn(-c3ccnc4c3c(C(C)C)nn4-c3ccc(C(N)=O)cc3Cl)cn2)cc1 [Example 150, 4-{1-(1-(4-Carbamoyl-2-chlorophenyl)-3-isopropyl-1H-pyrazolo[3,4-b]pyridin-4-yl)-1H-imidazol-4-yl}-N-isopropylbenzamide] | 1330 nM | 930 nM | – |
| CSCCCNc1cc(-n2nc(C(C)C)c3c(-c4cnc5ccccc5c4)ccnc32)ccc1C(N)=O [Example 23, 4-{3-Isopropyl-4-(quinolin-3-yl)-1H-pyrazolo[3,4-b]pyridin-1-yl}-2-{3-(methylthio)propylamino}benzamide] | 190 nM | 490 nM | – |
| Cc1cn(-c2ccc(C(N)=O)c(N[C@H]3CC[C@H](N)CC3)c2)c2nccc(-c3cnc4ccccc4c3)c12 [Example 61, 2-(Trans-4-aminocyclohexylamino)-4-{3-methyl-4-(quinolin-3-yl)-1H-pyrrolo[2,3-b]pyridin-1-yl}benzamide] | 360 nM | – | – |
| Cc1cn(-c2ccc(C(N)=O)c(S[C@H]3CC[C@H](O)CC3)c2)c2nccc(-c3cnc4ccccc4c3)c12 [Example 67, 2-(Trans-4-hydroxycyclohexylthio)-4-{3-methyl-4-(quinolin-3-yl)-1H-pyrrolo[2,3-b]pyridin-1-yl}benzamide] | 510 nM | – | – |
| COc1cc(C(N)=O)ccc1-n1nc(C(C)C)c2c(-n3cnc(-c4cnn(C)c4)c3)ccnc21 [Example 128, 4-{3-Isopropyl-4-(4-(1-methyl-1H-pyrazol-4-yl)-1H-imidazol-1-yl)-1H-pyrazolo[3,4-b]pyridin-1-yl}-3-methoxybenzamide] | 150 nM | – | – |
| COc1ccc2c(c1)cc(C)n2-c1ccc(C(N)=O)c(Nc2ccccc2)c1 [Comparative Example 5, reference compound] | – | – | IC50 (SK-BR-3 cells; Homo sapiens, SK-BR-3, 72 h): > 10000 nM |
| COc1ccc(-c2ccnc3c2c(C(C)C)nn3-c2ccc(C(N)=O)c(N[C@H]3CC[C@H](O)CC3)c2)cn1 [Example 18, 2-(Trans-4-hydroxycyclohexylamino)-4-{3-isopropyl-4-(6-methoxypyridin-3-yl)-1H-pyrazolo[3,4-b]pyridin-1-yl}benzamide] | 590 nM | – | – |
| COc1cc2ccn(-c3ccc(C(N)=O)c(Nc4ccccc4)c3)c2cc1OC [Comparative Example 4, reference compound] | – | – | IC50 (SK-BR-3 cells; Homo sapiens, SK-BR-3, 72 h): > 10000 nM |
| COc1cc2ccn(-c3ccc(C#N)c(Nc4ccccc4)c3)c2cc1OC [Comparative Example 3, reference compound] | > 10000 nM | – | – |

The remaining compounds from weak to strong by IC50 (SK-BR-3 cells; [2]), led by results:

| IC50 (SK-BR-3 cells; [2]) | IC50 [1, 3] | Compound | other results |
| --- | --- | --- | --- |
| 140 nM | 190 nM | CCNc1cc(C(N)=O)ccc1-n1nc(C(F)(F)F)c2c(-n3cnc(-c4cccnc4)c3)ccnc21 [Example 180, 3-(Ethylamino)-4-{4-(4-(pyridin-3-yl)-1H-imidazol-1-yl)-3-(trifluoromethyl)-1H-pyrazolo[3,4-b]pyridin-1-yl}benzamide] | – |
| 130 nM | 100 nM | Cn1cc(-c2cn(-c3ccnc4c3c(C(F)(F)F)nn4-c3ccc(C(N)=O)cc3F)cn2)cn1 [Example 171, 3-Fluoro-4-{4-(4-(1-methyl-1H-pyrazol-4-yl)-1H-imidazol-1-yl)-3-(trifluoromethyl)-1H-pyrazolo[3,4-b]pyridin-1-yl}benzamide] | – |
| 130 nM | 180 nM | CCCNc1cc(C(N)=O)ccc1-n1nc(C(C)C)c2c(-n3cnc(-c4cnn(C)c4)c3)ccnc21 [Example 122, 4-{3-Isopropyl-4-(4-(1-methyl-1H-pyrazol-4-yl)-1H-imidazol-1-yl)-1H-pyrazolo[3,4-b]pyridin-1-yl}-3-(propylamino)benzamide] | – |
| 110 nM | 420 nM | CCNc1cc(-n2nc(C(C)C)c3c(-n4cnc(-c5cn[nH]c5)c4)ccnc32)ccc1C(N)=O [Example 144, 4-{4-(4-(1H-Pyrazol-4-yl)-1H-imidazol-1-yl)-3-isopropyl-1H-pyrazolo[3,4-b]pyridin-1-yl}-2-(ethylamino)benzamide] | – |
| 110 nM | 200 nM | CCc1c(-n2nc(C(C)C)c3c(-n4cnc(-c5cnn(C)c5)c4)ccnc32)ccc(C(N)=O)c1N [Example 134, 2-Amino-3-ethyl-4-{3-isopropyl-4-(4-(1-methyl-1H-pyrazol-4-yl)-1H-imidazol-1-yl)-1H-pyrazolo[3,4-b]pyridin-1-yl}benzamide] | – |
| 80 nM | 190 nM | CC(C)Nc1cc(-n2nc(C(C)C)c3c(-n4cnc(-c5cnn(C)c5)c4)ccnc32)ccc1C(N)=O [Example 111, 4-{3-Isopropyl-4-(4-(1-methyl-1H-pyrazol-4-yl)-1H-imidazol-1-yl)-1H-pyrazolo[3,4-b]pyridin-1-yl}-2-(isopropylamino)benzamide] | – |
| 70 nM | 380 nM | CC(C)Nc1cc(-n2nc(C(F)(F)F)c3c(-n4cnc(-c5cccnc5)c4)ccnc32)ccc1C(N)=O [Example 179, 2-(Isopropylamino)-4-{4-(4-(pyridin-3-yl)-1H-imidazol-1-yl)-3-(trifluoromethyl)-1H-pyrazolo[3,4-b]pyridin-1-yl}benzamide] | – |
| 60 nM | 70 nM | COCCNc1cc(C(N)=O)ccc1-n1nc(C(F)(F)F)c2c(-n3cnc(-c4cnn(C)c4)c3)ccnc21 [Example 168, 3-(2-Methoxyethylamino)-4-{4-(4-(1-methyl-1H-pyrazol-4-yl)-1H-imidazol-1-yl)-3-(trifluoromethyl)-1H-pyrazolo[3,4-b]pyridin-1-yl}benzamide] | – |
| 40 nM | 70 nM | CCCc1cc(C(N)=O)ccc1-n1nc(C(F)(F)F)c2c(-n3cnc(-c4cnn(C)c4)c3)ccnc21 [Example 156, 4-{4-(4-(1-Methyl-1H-pyrazol-4-yl)-1H-imidazol-1-yl)-3-(trifluoromethyl)-1H-pyrazolo[3,4-b]pyridin-1-yl}-3-propylbenzamide] | – |
| 30 nM | 120 nM | CCc1cn(-c2ccc(C(N)=O)c(N[C@H]3CC[C@H](O)CC3)c2)c2nccc(-c3cnc4ccccc4c3)c12 [Example 41, 4-{3-Ethyl-4-(quinolin-3-yl)-1H-pyrrolo[2,3-b]pyridin-1-yl}-2-(trans-4-hydroxycyclohexylamino)benzamide] | – |
| 30 nM | – | CC(C)c1nn(-c2ccc(C(N)=O)c(N[C@H]3CC[C@H](O)CC3)c2)c2nccc(-c3cnc4ccccc4c3)c12 [Example 6, 2-(Trans-4-hydroxycyclohexylamino)-4-{3-isopropyl-4-(quinolin-3-yl)-1H-pyrazolo[3,4-b]pyridin-1-yl}benzamide] | – |
